Among the data in PubChem BioAssay (NCI) are TGI and GI50 values, retold here.

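Step 1: Grow cells in 96-well plates. Step 2: Expose to compound for 48 hours at 5 concentrations. Step 3: Interpolate endpoints linearly; if unreached, use highest concentration. GI50 = concentration required for 50% inhibition of growth. TGI is the concentration that stops growth completely.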

Some test systems named below: PC-3 prostate; U251 CNS; OVCAR-8 ovarian; K-562 leukemia; A498 renal; M14 melanoma; SK-OV-3 ovarian; HS 578T breast; UO-31 renal; OVCAR-4 ovarian; UACC-62 melanoma.
Holding throughout (experiment): NCI tumour cell line growth inhibition, 48 h

With `CC(=O)c1nc2ccccc2n1CC(=O)c1ccc([N+](=O)[O-])cc1`, the TGI with PC-3 prostate was 44.4 µM; with U251 CNS it was 19.9 µM; in the assay on OVCAR-8 ovarian, 21 µM; with K-562 leukemia, > 100 µM; in the assay with A498 renal, > 100 µM; in the assay with M14 melanoma, > 100 µM. Also, the TGI with SK-OV-3 ovarian is > 100 µM; with HS 578T breast it was 28.9 µM; in the assay on UO-31 renal, 45.9 µM; with OVCAR-4 ovarian, > 100 µM; with UACC-62 melanoma it was 60.9 µM.

`C#CCNC(Cc1ccccc1)C(=O)O` (stereo unspecified): the TGI in the assay with PC-3 prostate, in the assay with U251 CNS, in the assay on OVCAR-8 ovarian, in the assay on K-562 leukemia, in the assay on A498 renal and with M14 melanoma was > 100 µM throughout. The TGI in the assay on SK-OV-3 ovarian, with HS 578T breast, in the assay with UO-31 renal, in the assay on OVCAR-4 ovarian and in the assay on UACC-62 melanoma was > 100 µM in each case.

Take `N#Cc1nn(-c2ccc(Cl)cc2)c(N)c2c(=N)n3nc(-c4ccccc4)cc3nc12`: the TGI in the assay on U251 CNS is > 55.8 µM; in the assay with OVCAR-8 ovarian, > 100 µM; in the assay on K-562 leukemia, > 100 µM; with A498 renal it was > 56.7 µM; in the assay with M14 melanoma, > 100 µM; in the assay with SK-OV-3 ovarian, 29.3 µM. Also, the results for the TGI with UO-31 renal and with UACC-62 melanoma were 98.5 µM and > 35.7 µM, respectively. The GI50 in the assay on UO-31 renal is 31.5 µM.

With `C[C@H](NC(=O)OC1C2C=CC(O)C1CC2)c1ccccc1` (stereo partly specified), the TGI in the assay with U251 CNS, in the assay on OVCAR-8 ovarian, with K-562 leukemia, with A498 renal, in the assay on M14 melanoma and in the assay on SK-OV-3 ovarian was > 100 µM each time. The TGI with UO-31 renal, with OVCAR-4 ovarian and with UACC-62 melanoma was > 100 µM in each case.

Regarding `Cc1c(Cl)cccc1NC(=O)C(=O)C1C(=O)NC(=O)NC1=O`, the TGI in the assay with U251 CNS, in the assay with OVCAR-8 ovarian, in the assay on K-562 leukemia, in the assay on A498 renal, in the assay on M14 melanoma and in the assay on SK-OV-3 ovarian was > 100 µM each time. The TGI with UO-31 renal, with OVCAR-4 ovarian and in the assay with UACC-62 melanoma was > 100 µM throughout.

As to `CCOC(=O)[C@H]1Nc2ccc(O)cc2C2c3ccccc3CC21` (stereo partly specified), the TGI with U251 CNS, in the assay with OVCAR-8 ovarian, in the assay with K-562 leukemia, in the assay with A498 renal, with M14 melanoma and in the assay on UO-31 renal was > 100 µM in each case. The TGI in the assay with OVCAR-4 ovarian and in the assay with UACC-62 melanoma was > 100 µM throughout.

Take `OC(Cn1cncn1)(Cn1cncn1)c1ccc(Cl)cc1Cl`: the TGI in the assay with U251 CNS, with OVCAR-8 ovarian, in the assay with K-562 leukemia, with A498 renal, with M14 melanoma and in the assay on SK-OV-3 ovarian was > 100 µM each time. Further, the TGI in the assay on UO-31 renal, in the assay on OVCAR-4 ovarian and in the assay on UACC-62 melanoma was > 100 µM in each case.

As for `CC(=O)OCCOCNC(=S)N/N=C(\C)c1ccco1`, the TGI with U251 CNS, with OVCAR-8 ovarian, in the assay on K-562 leukemia, in the assay with A498 renal, in the assay on M14 melanoma and in the assay on SK-OV-3 ovarian was > 100 µM each time. The TGI in the assay on UO-31 renal, in the assay with OVCAR-4 ovarian and with UACC-62 melanoma was > 100 µM throughout.

Take `C[Si](C)(C)C#C[I+]c1ccccc1`: the TGI in the assay on U251 CNS is > 100 µM; with OVCAR-8 ovarian it was 50.1 µM; in the assay with K-562 leukemia, > 100 µM; in the assay with A498 renal it was > 100 µM; in the assay on M14 melanoma, 85.9 µM; with SK-OV-3 ovarian, > 100 µM. Besides, the TGI in the assay with UO-31 renal, with OVCAR-4 ovarian and in the assay on UACC-62 melanoma was > 100 µM each time.

Consider `CCOC(=O)Cc1csc(/N=C\c2c(O)c3ccccc3oc2=O)n1`, for which the TGI in the assay with PC-3 prostate, with U251 CNS, with OVCAR-8 ovarian, in the assay on M14 melanoma, with SK-OV-3 ovarian and with HS 578T breast was > 100 µM in each case. The TGI in the assay on UO-31 renal, with OVCAR-4 ovarian and in the assay with UACC-62 melanoma was > 100 µM in each case.

As to `CCCCCCCCCCCCCC(=O)OCC1OC(OC)C(NC(=O)N(CCCl)N=O)C(O)C1O` (stereo unspecified), the TGI in the assay with U251 CNS came to 52.4 µM; in the assay with OVCAR-8 ovarian it was 61.1 µM; with K-562 leukemia it was 56.8 µM; in the assay with A498 renal it was 65.6 µM; in the assay on M14 melanoma, 39.6 µM; in the assay with UO-31 renal, 51.7 µM. The TGI amounted to 50.7 µM in the assay on OVCAR-4 ovarian and 20.1 µM with UACC-62 melanoma.

With `Cn1cc(C(=O)C2CCCCC2)ccc1=O`, the TGI with U251 CNS, with OVCAR-8 ovarian, in the assay on K-562 leukemia, in the assay with M14 melanoma, with SK-OV-3 ovarian and with UO-31 renal was > 100 µM throughout. Moreover, the TGI with OVCAR-4 ovarian and in the assay on UACC-62 melanoma was > 100 µM in each case.

In the case of `COc1ccc(NS(=O)C2CCCCC2)cc1` (stereo unspecified), the TGI with U251 CNS, in the assay on OVCAR-8 ovarian, in the assay on K-562 leukemia, in the assay with M14 melanoma, in the assay with HS 578T breast and in the assay on UO-31 renal was > 100 µM in each case.

In the case of `CC1(C)COC(c2cccc(C3=NC(C)(C)CO3)c2)=N1`, the TGI in the assay on PC-3 prostate, in the assay on U251 CNS, in the assay on OVCAR-8 ovarian, in the assay with K-562 leukemia, with M14 melanoma and in the assay with UO-31 renal was > 100 µM each time. Besides, the TGI in the assay on OVCAR-4 ovarian and in the assay with UACC-62 melanoma was > 100 µM each time.

As for `CCOC(=O)c1c(OCC)[nH]c(=O)c(C(c2ccc(F)cc2)c2c(O)c(C(=O)OCC)c(OCC)[nH]c2=O)c1O`, the TGI in the assay with PC-3 prostate was 34.6 µM; in the assay with U251 CNS it was 36.3 µM; with OVCAR-8 ovarian, 28.1 µM; in the assay on K-562 leukemia it was 50.8 µM; in the assay on A498 renal it was 26.2 µM; in the assay on M14 melanoma, 63.3 µM. Also, the TGI in the assay on HS 578T breast was > 100 µM; in the assay with UO-31 renal, 25.7 µM; with OVCAR-4 ovarian it was 48.3 µM; in the assay on UACC-62 melanoma it was 30.3 µM.

Consider `CCC1OC2C(CC=C(C)C)=C3OC(C)(O)C(C)(CC)C(O)C3=C3OC(=O)C=C1C32` (stereo unspecified), for which the TGI in the assay on PC-3 prostate, in the assay on U251 CNS, in the assay on K-562 leukemia, with A498 renal, with M14 melanoma and in the assay on SK-OV-3 ovarian was > 100 µM each time. For the same compound, the TGI with UO-31 renal, in the assay with OVCAR-4 ovarian and in the assay on UACC-62 melanoma was > 100 µM in each case.

Take `O=Cc1cc(O)c(O)c(O)c1-c1c(C=O)cc(O)c(O)c1O`: the TGI in the assay on U251 CNS, in the assay on OVCAR-8 ovarian, with K-562 leukemia, in the assay on A498 renal, with M14 melanoma and in the assay on SK-OV-3 ovarian was > 100 µM in each case. For the same compound, the TGI in the assay on UO-31 renal, in the assay with OVCAR-4 ovarian and with UACC-62 melanoma was > 100 µM throughout.

Take `CC(=O)OC(C)(C)C1CCC(C)(C(O)COc2ccc(CCNC(=O)c3ccccc3)cc2)O1` (stereo unspecified): the TGI in the assay on U251 CNS, with OVCAR-8 ovarian, with M14 melanoma, in the assay on SK-OV-3 ovarian, with UO-31 renal and in the assay on OVCAR-4 ovarian was > 100 µM throughout. Besides, the TGI in the assay with UACC-62 melanoma was > 100 µM.

Take `Cn1c2ccccc2n2c(=O)c(-c3ccc(O)cc3)nnc12`: the TGI with PC-3 prostate was > 100 µM; in the assay with U251 CNS it was 85.8 µM; in the assay with OVCAR-8 ovarian, > 100 µM; in the assay with A498 renal it was > 100 µM; in the assay on M14 melanoma, > 100 µM; in the assay on HS 578T breast, > 100 µM. In addition, the TGI in the assay on UO-31 renal and in the assay on OVCAR-4 ovarian was > 100 µM throughout.

Take `COC(=O)c1nc2c(C)c(O)c(O)c([C@H](C)CCC=C(C)C)c2o1`: the TGI in the assay with PC-3 prostate is 93.5 µM; with U251 CNS, > 100 µM; in the assay with OVCAR-8 ovarian, > 100 µM; with K-562 leukemia, > 100 µM; in the assay with A498 renal it was 39 µM; in the assay on M14 melanoma, > 100 µM. For the same compound, the TGI with SK-OV-3 ovarian was > 100 µM; in the assay on HS 578T breast it was 87.4 µM; in the assay with UO-31 renal, 41.5 µM; with OVCAR-4 ovarian, > 100 µM.

Turning to `COC(=O)CP1(=O)OC2C(C3CCC2(C)C3(C)C)N1c1cc(C(F)(F)F)cc(C(F)(F)F)c1` (stereo unspecified), the TGI with PC-3 prostate is 74.9 µM; with U251 CNS, > 100 µM; in the assay with OVCAR-8 ovarian it was > 100 µM; in the assay on K-562 leukemia it was 68.3 µM; in the assay on A498 renal it was > 100 µM; in the assay with M14 melanoma it was > 100 µM. Besides, the TGI in the assay on SK-OV-3 ovarian was 80.5 µM; in the assay with UO-31 renal it was > 100 µM; in the assay with OVCAR-4 ovarian, > 100 µM; in the assay with UACC-62 melanoma it was > 100 µM.

For the compound `N#CC(C(=O)c1ccccc1F)c1nc2cc(C(F)(F)F)ccc2s1` (stereo unspecified), the TGI is > 100 µM with U251 CNS; > 100 µM in the assay with OVCAR-8 ovarian; 45.8 µM in the assay on A498 renal; > 100 µM in the assay with SK-OV-3 ovarian; > 100 µM in the assay with OVCAR-4 ovarian.

`C=C1C(=O)O[C@H]2C1C[C@@H](O)[C@@]1(C)OC1CC[C@@]1(C)O[C@H]21` (stereo partly specified): the TGI with PC-3 prostate was 83.9 µM; with U251 CNS, > 100 µM; in the assay on OVCAR-8 ovarian, > 100 µM; with K-562 leukemia, 32.5 µM; with M14 melanoma it was 31.3 µM; with SK-OV-3 ovarian, > 100 µM. Also, the TGI with HS 578T breast was 98.8 µM; with UO-31 renal, 32.5 µM; in the assay with OVCAR-4 ovarian, 30.3 µM; with UACC-62 melanoma it was 31.4 µM.
